Assay results as given in patent publication US20020165128A1, “Compositions and methods for proteolytically inactivating infectious agents using lactoferrin and related molecules” (priority 1998, published 2002).

Experiments:
[1] = molecular target: T1, lactoferrin-associated proteolysis of H. influenzae Hap (Homo sapiens, UniProt P02788); assay: Inhibition of lactoferrin-associated proteolysis of Hap by serine protease inhibitor; type: cell-based; conditions: 7.5 mM inhibitor in isopropanol, DB117/HapS243A
T1 construct: Lactoferrin amino acids are numbered beginning with the first residue in the mature protein (lacking the signal peptide); purchased Agennix Corporation; host or cells: Aspergillus awamori
T1 sequence (P02788 20-710): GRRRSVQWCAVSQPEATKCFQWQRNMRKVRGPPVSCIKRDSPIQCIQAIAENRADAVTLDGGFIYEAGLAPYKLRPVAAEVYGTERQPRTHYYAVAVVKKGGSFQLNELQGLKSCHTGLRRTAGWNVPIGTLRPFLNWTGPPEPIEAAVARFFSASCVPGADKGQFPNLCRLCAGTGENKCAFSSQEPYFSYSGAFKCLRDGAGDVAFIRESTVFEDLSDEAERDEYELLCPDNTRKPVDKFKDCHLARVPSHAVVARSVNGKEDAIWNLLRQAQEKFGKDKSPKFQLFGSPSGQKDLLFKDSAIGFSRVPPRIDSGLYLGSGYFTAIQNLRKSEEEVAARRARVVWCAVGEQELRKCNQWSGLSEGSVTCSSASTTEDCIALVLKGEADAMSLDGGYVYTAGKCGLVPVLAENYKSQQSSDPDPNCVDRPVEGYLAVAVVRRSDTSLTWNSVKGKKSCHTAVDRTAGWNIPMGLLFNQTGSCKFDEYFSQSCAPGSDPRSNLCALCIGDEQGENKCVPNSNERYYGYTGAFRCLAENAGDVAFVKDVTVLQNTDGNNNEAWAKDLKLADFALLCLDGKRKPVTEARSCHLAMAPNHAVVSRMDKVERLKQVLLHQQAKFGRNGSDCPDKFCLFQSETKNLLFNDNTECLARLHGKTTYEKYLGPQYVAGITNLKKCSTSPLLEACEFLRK
Procedure: To determine whether lactoferrin was functioning as a serine protease, the ability of phenylmethylsulfonyl fluoride (PMSF), a broad inhibitor of serine proteases, to inhibit degradation of Hap was examined. DB117/HapS243A was incubated in PBS (Lane 1), PBS with 430 nM A. awamori recombinant lactoferrin (Lane 2), PBS with 430 nM recombinant lactoferrin and 7.5% isopropanol (Lane 3), or PBS with recombinant lactoferrin and 7.5 mM PMSF in isopropanol (Lane 4). Whole cell lysates were prepared and examined by Western blot analysis with antiserum Rab 730, which reacts with the Hap preprotein, HapS, and Hap. The arrowhead indicates the Hap preprotein, and the arrows indicate Hap degradation products.

[2] = molecular target: lactoferrin extraction of the IgA1 protease preprotein (Homo sapiens, UniProt P02788); type: cell-based; conditions: 10 mM inhibitor
Sequence of lactoferrin extraction of the IgA1 protease preprotein (P02788 20-710): as above

## O=S(=O)(F)Cc1ccccc1 [PMSF, phenylmethylsulfonyl fluoride]
[1]
  inhibition of proteolysis of Hap produced by 430 nM recombinant lactoferrin: significantly inhibited
[2]
  inhibition of lactoferrin extraction of IgA1 protease preprotein: inhibited
